# Laboratory results from patent publication US20250368633A1, “AZEPINE FUSED RING COMPOUND AS RIPK1 INHIBITOR AND USE THEREOF” (ARTIVILA BIOPHARMA, priority 2022, published 2025).
# Test system: U937 cells
# Assay: EC50 of necroptosis inhibition in U937 cells (TSZ-induced, CellTiter-Glo)
# Type: cell-based
# Conditions: Homo sapiens, U-937; TSZ (hTNF-α, SM-164, Z-VAD-FMK) 20 hours; 10 concentration points; read-out: EC50 intervals of necroptosis inhibition in U937 cells
# In short: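 U937 cells pretreated 15 min with compound (10-point, 1:3 series), then necroptosis induced by TSZ (hTNF-α, SM-164, Z-VAD-FMK) for 20 h at 37 °C. Viability measured as ATP by CellTiter-Glo luminescence; inhibition normalised to untreated and TSZ-only wells, EC50 from four-parameter fit.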
row,Structure (SMILES),EC50
1,"COC(=O)C1(C#Cc2ccc3c(c2)N(C)C(=O)[C@@H](NC(=O)C(=O)NCCc2ccccc2)CO3)CC1 [Example 96, methyl (S)-1-((5-methyl-4-oxo-3-(2-oxo-2-(phenethylamino)acetamido)-2,3,4,5-tetrahydrobenzo[b][1,4]oxazepin-7-yl)ethynyl)cyclopropane-1-carboxylate]",< 100 nM
2,"CN1C(=O)[C@@H](NC(=O)C(=O)NCCc2cccs2)COc2ccccc21 [Example 97, (S)—N^1-(5-methyl-4-oxo-2,3,4,5-tetrahydrobenzo[b][1,4]oxazepin-3-yl)-N^2-(2-(thiophen-2-yl)ethyl)oxalamide]",100 to 500 nM
3,"CN1C(=O)[C@@H](NC(=O)C(=O)NCCc2ccsc2)COc2ccccc21 [Example 98, (S)—N-(5-methyl-4-oxo-2,3,4,5-tetrahydrobenzo[b][1,4]oxazepin-3-yl)-N^2-(2-(thiophen-3-yl)ethyl)oxalamide]",100 to 500 nM
